Assays:
[1] = test system: (NZB×NZW)F1 mice; experiment: Treatment of established SLE-like disease in (NZB×NZW)F1 mice; assay type: in vivo; conditions: for anti-dsDNA autoantibody O.D. values: sera 1:1250, end of treatment, PBS-treated 0.586±0.1
Experimental: Induction and treatment of experimental SLE. In order to induce experimental SLE, BALB/c mice were immunized with 1-2 μg of the human mAb 16/6Id and boosted 3 weeks later. For the prevention of experimental SLE, mice were given hCDR1 or hCDR3 (mCDR1 or revmCDR1 as control peptide in Example 12) intravenously (i.v.) or s.c. concomitant with the immunization, and were injected weekly thereafter for 5 weeks. Treatment of an established disease started three and a half months following disease induction with the 16/6Id, when clinical manifestations were already observed. In Example 12, mice received 10 weekly injections (i.v. or s.c.) of mCDR1 or revmCDR1 at a dose of 100 μg/mouse. Prevention and treatment of SLE-like disease in (NZB×NZW)F1 mice with the hCDR1 or mCDR1 peptide. For prevention of SLE, mice at the age of 2 months, before disease manifestations are observed, were injected s.c. with hCDR1 (or mCDR1 in Example 12, 250 μg/mouse) once a week for 10 weeks. To treat an established disease, mice at the age of 5-7 months were injected with hCDR1 (in Example 12, mCDR1 s.c., 250 μg/mouse) once a week for 10 weeks. Proliferative Responses. PBL were isolated from heparinized venous blood by Ficoll-Hypaque (Pharmacia) density-gradient centrifugation. All assays were performed, in triplicate, in flat-bottomed microtiter plates (Falcon, Becton Dickinson, Oxmard, Calif., USA) in which 2×10^5 PBL were cultured in enriched RPMI-1640 as described (Dayan et al., 2000). The PBL were exposed to various concentrations (0.1-40 μg/well) of the human anti-DNA 16/6Id mAb with and without the addition of the various CDR-based peptides at a concentration of at least 10-fold excess over that of the 16/6Id. Phytohemagglutinin (PHA; 2 μg/well) was used as a control for culture conditions at each experiment. The cultures were incubated in 7.5% CO2 at 37° C. for 6 days. Eighteen hours before the cells were harvested, [^3H]-thymidine (0.5μ Ci of 5 Ci/mmol) (Nuclear Research Center, Negev, Israel) was added to all cultures. Results are expressed as the mean thymidine incorporation in counts per minute (CPM) of triplicate culture±SD, or as stimulation index (S.I.; the ratio of mean CPM at the optimal concentration of the human 16/6Id to the mean CPM in the presence of medium alone). A S.I.≧2 was considered a positive response (Dayan et al., 2000). Inhibition (the ratio of mean CPM in the presence of the 16/6Id and various CDR-based peptides to the mean CPM with the 16/6Id without the CDR-based peptide) above 50% was considered positive. Induction of Cytokine Production. Mice that were immunized with the human 16/6Id mAb and either treated or not with the CDR-based peptide, were killed at different periods during or after treatment with the peptide. Splenocytes and lymph node cells (LNC) were harvested and incubated (5×10^6/ml) in the presence of the 16/6Id. Supernatants were collected after 48 and 72 h. Assessment of Cytokines in the Supernatants. Supernatants were collected 48 hours following the initiation of the cultures and stored at −70° C. Measurements of IL-2, IL-10, IFN-γ, and TNF-α were performed by ELISA by using the relevant standards, capture and detecting Abs (Pharmingen) according to the manufacturer's instructions. TGF-β was determined by an ELISA. Briefly, plates were coated with the recombinant human TGF-β1 sRIII/Fc chimera (R & D Systems Inc., Minneapolis, Minn., USA), and the second Ab used was the biotinylated anti-human TGF-β1 antibody (R & D Systems Inc.). The substrate solution used was TMB color Reagent (Helix Diagnostics, West Sacramento, Calif.), and enzyme activity was evaluated by using 570- and 630-nm filters. Detection of SLE-Associated Clinical and Pathological Manifestations. Proteinuria was measured semiquantitatively by using Combistix kit (Ames Division, Bayer Diagnostics, Newbury, U.K.). White blood cells (WBC, for leukopenia) were counted after a 10-fold dilution of heparinized blood in distilled water containing 1% acetic acid (vol/vol). […]

[2] = test system: SJL-derived LNC; experiment: In vivo inhibition of proliferation of SJL LNC to the human 16/6Id mAb; design: species or system mice; conditions: maximum % inhibition; 200 μg/mouse s.c. in PBS concomitant with priming
Experimental: Because our aim was to test the inhibitory capacity of the peptides based on the CDR of the human 16/6Id autoantibody, it was of importance to find out whether peptides hCDR1 and hCDR3 are capable of inhibiting the priming to the whole molecule of the human 16/6Id mAb. To this end, BALB/c and SJL mice were primed with the human 16/6Id mAb (2 μg/mouse) in CFA intradermally in the hind footpads. The priming was done concomitant with the s.c. administration in PBS of 200 μg/mouse of hCDR1 to groups of BALB/c mice and of hCDR3 to SJL mice. Ten days following immunization, the mice were sacrificed and their LNCs were tested in vitro for their ability to proliferate to different concentrations (0.1-10 μg/well) of the human anti-DNA 16/6Id mAb.
The results are presented as maximum % inhibition of the proliferation to the immunizing human 16/6Id mAb of lymph node cells of mice immunized and treated with the peptides hCDR1 and hCDR3 as compared with mice that were immunized with the 16/6Id mAb but were not treated with the peptides.

[3] = age 7 months, 10 weeks, 100 μg/mouse or 300 μg/mouse

GYYWSWIRQPPGKGEEWIG (Human) [hCDR1, 19-mer peptide based on the CDR1 of the heavy chain of the human 16/6Id mAb]
anti-dsDNA autoantibody O.D. values ([1]; 50 μg/mouse s.c. weekly for 10 weeks from age 5 and a half months): 0.27±0.1 O.D. | number and intensity of immune complexes in kidney sections ([1]; 100 μg dose, mice sacrificed at 9 months, FIGS. 11A-11D): reduced the number of immune complexes as well as their intensity | anti-dsDNA autoantibody O.D. values ([1]; 100 μg/mouse s.c. weekly for 10 weeks from age 5 and a half months): 0.37±0.1 O.D. | anti-dsDNA autoantibody O.D. values ([1]; 200 μg/mouse s.c. weekly for 10 weeks from age 5 and a half months): 0.29±0.1 O.D. | Proteinuria g/L ± SEM ([1]; 300 μg/mouse s.c. weekly for 10 weeks at the age of 7 months, untreated 4.80 ± 2.56): 1.08 ± 0.38 g/L | Proteinuria g/L ± SEM ([1]; 300 μg/mouse, age 7 months, following treatment No 5, untreated 2.65 ± 1.76): 0.61 ± 0.23 g/L | Proteinuria g/L ± SEM ([1]; 300 μg/mouse, age 7 months, following treatment No 7, untreated 3.89 ± 2.73): 0.65 ± 0.32 g/L | Proteinuria g/L ± SEM ([1]; 300 μg/mouse, age 7 months, following treatment No 9, untreated 7.55 ± 3.95): 1.02 ± 0.39 g/L | Immune Complex Deposits ± SEM ([1]; 300 μg/mouse, age 7 months, intensity 0=no ICD to 3=severe and extremely intense ICD, untreated 2.57 ± 0.29, p = 0.035): 1.44 ± 0.41 | Proteinuria g/L ± SEM ([1]; 400 μg/mouse at the age of 6 months, untreated 4.99 ± 2.53): 0.77 ± 0.32 g/L | Immune Complex Deposits ± SEM ([1]; 400 μg/mouse, age 6 months, intensity score 0-3, untreated 2 ± 0.29, p = 0.05): 1.42 ± 0.19 | anti-DNA antibody titers in sera ([1]; 7-month old mice, 300 μg s.c. weekly for 10 weeks): mild reduction | anti-dsDNA autoantibody titers ([1]; 50, 100 and 200 μg/mouse s.c. weekly for 10 weeks from age 5 and a half months): moderate reduction | anti-DNA autoantibody titers [1, 3]: moderate reduction | proteinuria in comparison to the PBS-treated group [1, 3]: reduction | kidney disease ([1]; age 7 months, 10 weeks, 100 or 300 μg/mouse, more significant effect with 300 μg): ameliorated | kidney disease ([1]; ten-week treatment, 50 μg dose less efficient than 100 and 200 μg): reduced significantly

YYCARGLLRGGWNDVDYYGMDV (Human) [hCDR3, peptide based on the CDR3 of the heavy chain of the human 16/6Id mAb]
% Inhibition of the proliferation of SJL-derived LNC to the human 16/6Id mAb [2]: 68%
